pIC50: −log10 of the molar value.
target: human Cav2.2 (Homo sapiens, UniProt Q00975); test: Assessment of calcium channel activity using FLIPR (Ca2+ influx in IMR32 cells); assay type: cell-based; conditions: 60 minute pre-incubation with compound, 2 μM nifedipine, depolarized with 80 mM KCl
Method in brief: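 IC50 came from sigmoidal non-linear regression of percent inhibition, relative to uninhibited activity, across compound concentrations. Calcium influx was measured by FLIPR in IMR32 cells plated at 1-1.2×10^5 cells/well and cultured 48 h at 37 °C.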

Sequence of human Cav2.2 (Q00975 whole entry): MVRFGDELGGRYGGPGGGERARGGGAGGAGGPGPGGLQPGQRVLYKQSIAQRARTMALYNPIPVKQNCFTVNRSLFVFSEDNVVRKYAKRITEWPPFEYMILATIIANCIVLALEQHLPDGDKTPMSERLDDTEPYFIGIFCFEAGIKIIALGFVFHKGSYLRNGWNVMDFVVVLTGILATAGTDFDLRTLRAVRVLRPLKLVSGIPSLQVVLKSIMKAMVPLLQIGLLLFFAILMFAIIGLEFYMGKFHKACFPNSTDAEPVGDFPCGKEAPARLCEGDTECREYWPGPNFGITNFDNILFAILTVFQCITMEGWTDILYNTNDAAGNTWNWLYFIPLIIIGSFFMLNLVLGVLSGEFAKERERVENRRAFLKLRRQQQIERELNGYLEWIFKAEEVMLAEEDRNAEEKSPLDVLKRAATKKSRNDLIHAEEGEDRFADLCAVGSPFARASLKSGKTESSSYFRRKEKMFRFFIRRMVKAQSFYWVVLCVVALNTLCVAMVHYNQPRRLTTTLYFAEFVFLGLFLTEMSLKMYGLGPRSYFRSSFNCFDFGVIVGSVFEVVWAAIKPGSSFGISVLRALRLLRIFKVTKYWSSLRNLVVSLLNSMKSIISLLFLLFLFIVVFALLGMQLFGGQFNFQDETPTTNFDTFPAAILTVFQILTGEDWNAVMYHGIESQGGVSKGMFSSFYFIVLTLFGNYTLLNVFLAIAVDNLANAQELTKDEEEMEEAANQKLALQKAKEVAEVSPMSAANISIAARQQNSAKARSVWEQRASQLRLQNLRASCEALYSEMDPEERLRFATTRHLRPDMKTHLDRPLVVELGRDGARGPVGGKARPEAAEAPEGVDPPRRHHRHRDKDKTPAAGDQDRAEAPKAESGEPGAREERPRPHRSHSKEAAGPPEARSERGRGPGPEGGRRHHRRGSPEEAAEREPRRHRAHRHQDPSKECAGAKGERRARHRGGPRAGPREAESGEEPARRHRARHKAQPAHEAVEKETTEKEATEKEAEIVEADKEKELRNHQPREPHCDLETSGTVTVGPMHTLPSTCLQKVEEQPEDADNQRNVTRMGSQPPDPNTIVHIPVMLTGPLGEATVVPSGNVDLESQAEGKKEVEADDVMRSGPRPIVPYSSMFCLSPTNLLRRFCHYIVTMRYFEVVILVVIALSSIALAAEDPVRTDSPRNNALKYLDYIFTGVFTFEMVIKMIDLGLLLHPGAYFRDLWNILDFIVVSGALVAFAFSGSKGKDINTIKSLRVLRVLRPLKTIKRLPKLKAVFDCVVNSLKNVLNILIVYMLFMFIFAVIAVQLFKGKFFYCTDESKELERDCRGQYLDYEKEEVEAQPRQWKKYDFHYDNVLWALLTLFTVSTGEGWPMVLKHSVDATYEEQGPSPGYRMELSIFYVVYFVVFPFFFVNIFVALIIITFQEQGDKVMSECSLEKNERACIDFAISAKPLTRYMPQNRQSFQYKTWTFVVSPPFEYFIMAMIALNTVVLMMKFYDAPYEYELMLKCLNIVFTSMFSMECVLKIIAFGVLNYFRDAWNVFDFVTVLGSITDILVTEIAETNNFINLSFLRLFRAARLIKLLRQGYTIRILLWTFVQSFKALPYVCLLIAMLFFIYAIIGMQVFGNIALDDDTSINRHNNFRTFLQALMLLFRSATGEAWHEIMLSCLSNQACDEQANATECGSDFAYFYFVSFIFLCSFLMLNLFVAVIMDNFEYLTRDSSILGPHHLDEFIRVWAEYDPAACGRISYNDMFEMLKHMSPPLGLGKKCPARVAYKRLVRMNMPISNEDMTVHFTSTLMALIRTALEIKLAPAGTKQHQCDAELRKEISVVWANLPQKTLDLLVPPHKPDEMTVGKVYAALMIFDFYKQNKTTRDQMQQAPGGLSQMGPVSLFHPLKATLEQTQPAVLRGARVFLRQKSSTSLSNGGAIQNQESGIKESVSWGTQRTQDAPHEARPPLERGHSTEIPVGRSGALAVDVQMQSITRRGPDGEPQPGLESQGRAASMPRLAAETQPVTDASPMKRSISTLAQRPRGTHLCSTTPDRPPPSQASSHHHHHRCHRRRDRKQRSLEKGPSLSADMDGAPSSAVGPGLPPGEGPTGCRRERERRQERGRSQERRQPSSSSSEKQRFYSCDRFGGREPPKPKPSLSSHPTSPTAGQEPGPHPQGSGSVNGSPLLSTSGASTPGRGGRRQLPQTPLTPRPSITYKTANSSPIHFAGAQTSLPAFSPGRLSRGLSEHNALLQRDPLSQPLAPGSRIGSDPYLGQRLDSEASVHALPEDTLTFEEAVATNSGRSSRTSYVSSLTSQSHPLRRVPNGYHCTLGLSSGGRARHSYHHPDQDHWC
Sequence of human Cav2.2 (P54289 25-946 partner limits assumed): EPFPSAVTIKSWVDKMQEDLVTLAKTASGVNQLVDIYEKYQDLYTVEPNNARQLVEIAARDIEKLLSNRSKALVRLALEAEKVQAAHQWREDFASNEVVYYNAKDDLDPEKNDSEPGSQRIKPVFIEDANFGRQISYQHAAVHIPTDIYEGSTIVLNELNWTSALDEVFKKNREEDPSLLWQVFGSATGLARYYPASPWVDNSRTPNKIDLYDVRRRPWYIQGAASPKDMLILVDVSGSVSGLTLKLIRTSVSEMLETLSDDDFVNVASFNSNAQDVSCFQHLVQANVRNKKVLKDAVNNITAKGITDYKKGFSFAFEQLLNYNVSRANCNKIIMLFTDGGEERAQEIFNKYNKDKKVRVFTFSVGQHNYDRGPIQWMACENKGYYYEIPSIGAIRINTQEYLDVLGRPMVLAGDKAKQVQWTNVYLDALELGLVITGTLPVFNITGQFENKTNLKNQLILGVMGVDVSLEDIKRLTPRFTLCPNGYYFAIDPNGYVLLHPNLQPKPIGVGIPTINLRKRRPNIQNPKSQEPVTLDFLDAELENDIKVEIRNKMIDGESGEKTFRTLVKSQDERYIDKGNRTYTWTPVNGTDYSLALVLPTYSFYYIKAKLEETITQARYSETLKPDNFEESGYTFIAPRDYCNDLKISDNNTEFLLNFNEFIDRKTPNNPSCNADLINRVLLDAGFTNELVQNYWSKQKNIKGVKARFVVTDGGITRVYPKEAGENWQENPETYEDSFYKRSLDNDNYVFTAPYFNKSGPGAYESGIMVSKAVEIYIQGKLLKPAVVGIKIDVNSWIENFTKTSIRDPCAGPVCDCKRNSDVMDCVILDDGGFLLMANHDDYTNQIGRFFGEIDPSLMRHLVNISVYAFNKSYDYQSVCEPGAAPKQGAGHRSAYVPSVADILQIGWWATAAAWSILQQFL
Sequence of human Cav2.2 (P54289 947-1103 partner limits assumed): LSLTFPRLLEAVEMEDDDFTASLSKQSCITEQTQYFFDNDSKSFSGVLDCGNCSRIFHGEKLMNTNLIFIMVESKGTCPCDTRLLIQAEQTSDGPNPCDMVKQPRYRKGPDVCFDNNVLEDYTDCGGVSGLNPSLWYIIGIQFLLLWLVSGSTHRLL
Sequence of human Cav2.2 (P54284 whole entry partner): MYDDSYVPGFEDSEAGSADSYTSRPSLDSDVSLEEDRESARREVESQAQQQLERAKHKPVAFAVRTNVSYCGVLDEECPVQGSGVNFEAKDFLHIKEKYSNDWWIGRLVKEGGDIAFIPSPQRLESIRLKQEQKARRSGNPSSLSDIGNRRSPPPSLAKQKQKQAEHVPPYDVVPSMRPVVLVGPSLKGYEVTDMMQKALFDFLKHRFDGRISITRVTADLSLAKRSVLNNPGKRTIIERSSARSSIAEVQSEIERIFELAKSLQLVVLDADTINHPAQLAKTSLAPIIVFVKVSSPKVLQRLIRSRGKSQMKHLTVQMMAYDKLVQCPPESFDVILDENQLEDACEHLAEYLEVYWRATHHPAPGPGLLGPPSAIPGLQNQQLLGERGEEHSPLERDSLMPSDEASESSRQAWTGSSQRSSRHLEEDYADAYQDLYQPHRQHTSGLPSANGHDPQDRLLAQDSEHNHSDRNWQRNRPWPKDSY

Point of comparison: `CN[C@@H](CC(C)C)C(=O)N[C@@H]1CC[C@H]2CN(S(=O)(=O)c3cccc(F)c3)C[C@H]21` [Example 443, N^1-{(3aS,4R,6aR)-2-[(3-fluorophenyl)sulfonyl]octahydrocyclopenta[c]pyrrol-4-yl}-N^2-methyl-L-leucinamide], pIC50 5.11. Against it:
- CC(C)(C)C[C@H](N)C(=O)N[C@H]1CC[C@@H]2CN(S(=O)(=O)c3ccc(C(F)(F)F)cc3)C[C@@H]21 [Example 419, 4-methyl-N^1-((3aR,4S,6aS)-2-{[4-(trifluoromethyl)phenyl]sulfonyl}octahydrocyclopenta[c]pyrrol-4-yl)-L-leucinamide] — 0.99 log units higher, 6.10
- CCC[C@H](NC)C(=O)N[C@@H]1CC[C@@H]2CN(S(=O)(=O)c3ccc(C(F)(F)F)cc3)C[C@@H]21 [Example 420, N^2-methyl-N^1-((3aR,4R,6aS)-2-{[4-(trifluoromethyl)phenyl]sulfonyl}octahydrocyclopenta[c]pyrrol-4-yl)-L-norvalinamide] — within 0.2 log units, 5.24
- CN[C@@H](CC(C)C)C(=O)N[C@@H]1CC[C@@H]2CN(S(=O)(=O)c3ccc(C(F)(F)F)cc3)C[C@@H]21 [Example 421, N^2-methyl-N^1-((3aR,4R,6aS)-2-{[4-(trifluoromethyl)phenyl]sulfonyl}octahydrocyclopenta[c]pyrrol-4-yl)-L-leucinamide] — 0.48 log units higher, 5.59
- CCC[C@H](N)C(=O)N[C@H]1CC[C@@H]2CN(S(=O)(=O)c3cccc(C(F)(F)F)c3)C[C@@H]21 [Example 424, N^1-((3aR,4S,6aS)-2-{[3-(trifluoromethyl)phenyl]sulfonyl}octahydrocyclopenta[c]pyrrol-4-yl)-L-norvalinamide] — 0.40 log units higher, 5.51
- CCC[C@H](N)C(=O)N[C@@H]1CC[C@H]2CN(S(=O)(=O)c3cccc(C(F)(F)F)c3)C[C@H]21 [Example 425, N^1-((3aS,4R,6aR)-2-{[3-(trifluoromethyl)phenyl]sulfonyl}octahydrocyclopenta[c]pyrrol-4-yl)-L-norvalinamide] — 0.38 log units higher, 5.49
- CN[C@@H](CC1CCCCC1)C(=O)N[C@H]1CC[C@@H]2CN(S(=O)(=O)c3ccc(C(F)(F)F)cc3)C[C@@H]21 [Example 427, 3-cyclohexyl-N^2-methyl-N^1-((3aR,4S,6aS)-2-{[4-(trifluoromethyl)phenyl]sulfonyl}octahydrocyclopenta[c]pyrrol-4-yl)-L-alaninamide] — within 0.2 log units, 5.19
- CC(C)(C)C[C@H](N)C(=O)N[C@H]1CC[C@@H]2CN(S(=O)(=O)c3cc(C(F)(F)F)ccc3Cl)C[C@@H]21 [Example 428, N^1-((3aR,4S,6aS)-2-{[2-chloro-5-(trifluoromethyl)phenyl]sulfonyl}octahydrocyclopenta[c]pyrrol-4-yl)-4-methyl-L-leucinamide] — 0.53 log units higher, 5.64
- CC(C)(C)C[C@H](N)C(=O)N[C@H]1CC[C@@H]2CN(S(=O)(=O)c3ccc(C(F)(F)F)cc3Cl)C[C@@H]21 [Example 429, N^1-((3aR,4S,6aS)-2-{[2-chloro-4-(trifluoromethyl)phenyl]sulfonyl}octahydrocyclopenta[c]pyrrol-4-yl)-4-methyl-L-leucinamide] — 0.91 log units higher, 6.02
- CN[C@@H](CC(C)(C)C)C(=O)N[C@H]1CC[C@@H]2CN(S(=O)(=O)c3ccc(C(F)(F)F)cc3Cl)C[C@@H]21 [Example 431, N^1-((3aR,4S,6aS)-2-{[2-chloro-4-(trifluoromethyl)phenyl]sulfonyl}octahydrocyclopenta[c]pyrrol-4-yl)-N^2,4-dimethyl-L-leucinamide] — 1.13 log units higher, 6.24
- CN[C@@H](CC(C)(C)C)C(=O)N(C1CC1)[C@H]1CC[C@@H]2CN(S(=O)(=O)c3ccc(C(F)(F)F)cc3)C[C@@H]21 [Example 433, N^1-cyclopropyl-N^2,4-dimethyl-N^1-((3aR,4S,6aS)-2-{[4-(trifluoromethyl)phenyl]sulfonyl}octahydrocyclopenta[c]pyrrol-4-yl)-L-leucinamide] — 0.79 log units higher, 5.90
- CCN(C(=O)[C@H](CC(C)(C)C)NC)[C@H]1CC[C@@H]2CN(S(=O)(=O)c3ccc(C(F)(F)F)cc3)C[C@@H]21 [Example 434, N^1-ethyl-N^2,4-dimethyl-N^1-((3aR,4S,6aS)-2-{[4-(trifluoromethyl)phenyl]sulfonyl}octahydrocyclopenta[c]pyrrol-4-yl)-L-leucinamide] — 0.46 log units higher, 5.57
- CCCN(C(=O)[C@H](CC(C)(C)C)NC)[C@H]1CC[C@@H]2CN(S(=O)(=O)c3ccc(C(F)(F)F)cc3)C[C@@H]21 [Example 435, N^2,4-dimethyl-N^1-propyl-N^1-((3aR,4S,6aS)-2-{[4-(trifluoromethyl)phenyl]sulfonyl}octahydrocyclopenta[c]pyrrol-4-yl)-L-leucinamide] — 0.52 log units higher, 5.63
- CN[C@@H](CC(C)(C)C)C(=O)N(CC1CC1)[C@H]1CC[C@@H]2CN(S(=O)(=O)c3ccc(C(F)(F)F)cc3)C[C@@H]21 [Example 436, N^1-(cyclopropylmethyl)-N^2,4-dimethyl-N^1-((3aR,4S,6aS)-2-{[4-(trifluoromethyl)phenyl]sulfonyl}octahydrocyclopenta[c]pyrrol-4-yl)-L-leucinamide] — 0.64 log units higher, 5.75
- CN[C@@H](CC(C)(C)C)C(=O)N(C)[C@H]1CC[C@@H]2CN(S(=O)(=O)c3ccc(C(F)(F)F)cc3)C[C@@H]21 [Example 437, N^1,N^2,4-trimethyl-N^1-((3aR,4S,6aS)-2-{[4-(trifluoromethyl)phenyl]sulfonyl}octahydrocyclopenta[c]pyrrol-4-yl)-L-leucinamide] — 0.50 log units higher, 5.61
- CC(C)(C)C[C@H](N)C(=O)N[C@H]1CC[C@@H]2CN(c3ccc(C(F)(F)F)cn3)C[C@@H]21 [Example 440, 4-methyl-N^1-{(3aR,4S,6aS)-2-[5-(trifluoromethyl)pyridin-2-yl]octahydrocyclopenta[c]pyrrol-4-yl}-L-leucinamide] — 0.39 log units higher, 5.50
- CC(C)(C)C[C@H](N)C(=O)N[C@H]1CC[C@@H]2CN(c3cccc(C(F)(F)F)n3)C[C@@H]21 [Example 441, 4-methyl-N^1-{(3aR,4S,6aS)-2-[6-(trifluoromethyl)pyridin-2-yl]octahydrocyclopenta[c]pyrrol-4-yl}-L-leucinamide] — 1.32 log units higher, 6.43
- CN[C@@H](CC(C)C)C(=O)N[C@@H]1CC[C@H]2CN(S(=O)(=O)c3ccc(F)cc3)C[C@H]21 [Example 444, N^1-{(3aS,4R,6aR)-2-[(4-fluorophenyl)sulfonyl]octahydrocyclopenta[c]pyrrol-4-yl}-N^2-methyl-L-leucinamide] — 0.57 log units higher, 5.68
- CN[C@@H](CC(C)C)C(=O)N[C@@H]1CC[C@H]2CN(S(=O)(=O)c3ccc(F)c(F)c3)C[C@H]21 [Example 445, N^1-{(3aS,4R,6aR)-2-[(3,4-difluorophenyl)sulfonyl]octahydrocyclopenta[c]pyrrol-4-yl}-N^2-methyl-L-leucinamide] — within 0.2 log units, 5.10
- CN[C@@H](CC(C)C)C(=O)N[C@@H]1CC[C@H]2CN(S(=O)(=O)c3cc(F)cc(F)c3)C[C@H]21 [Example 446, N^1-{(3aS,4R,6aR)-2-[(3,5-difluorophenyl)sulfonyl]octahydrocyclopenta[c]pyrrol-4-yl}-N^2-methyl-L-leucinamide] — within 0.2 log units, 5.30
- CN[C@@H](CC(C)C)C(=O)N[C@@H]1CC[C@H]2CN(S(=O)(=O)c3ccc(Cl)cc3)C[C@H]21 [Example 447, N^1-{(3aS,4R,6aR)-2-[(4-chlorophenyl)sulfonyl]octahydrocyclopenta[c]pyrrol-4-yl}-N^2-methyl-L-leucinamide] — 0.46 log units higher, 5.57
